Laboratory results reported in patent publication EP4591860A1, “OPHTHALMIC PHARMACEUTICAL COMPOSITION FOR THE PREVENTION AND TREATMENT OF DRY EYE SYNDROME” (FB Vision S.p.A., priority 2024, dated 2025).
“Also recorded” adds a separate entry of the source.

Columns and labels:
Assay type in all cases: cell-based, human
[1] = system: HCEC cells; assay: MTT cell viability assay
Description: The primary culture of HCEC (cat. PCS-700-010) was purchased from the American Type Culture Collection (ATCC), Manassas, VA, USA.
The cells were resuspended in basal medium for corneal epithelial cells (devoid of serum and calcium) and supplemented with a growth kit provided by ATCC.
The cells were seeded at a density of 8 × 10^3 cells/well in a 96-well plate and cultured overnight. The cells were then treated with PGB or HA at different concentrations for 24 hours or with empty medium (control). After gently washing them with PBS, the cells were incubated with 0.5 mg/ml MTT solution in the dark for 4 hours. After removing the supernatant, DMSO was added to solubilize the formazan. Absorbance at 570 nm was measured with an ELISA reader (Multiskan MK3) for cell viability.

[2] = system: IL-6; assay: LPS-stimulated cytokine secretion in HCEC (ELISA); conditions: 500 ng/mL LPS 24-hour; preincubation 1h; 100 µg/ml each, combination in 1/1 ratio
Description: (§1) IL-1b, IL-6 and TNF-a were detected with ELISA kits purchased from Abcam, Cambridge (MA) USA. Data are expressed as mean ± SEM, n=4; *p<0.001 with respect to LPS, **p<0.001 with respect to PGB or HA alone.
(§2) 24-hour exposure of HCECs to 500 ng/mL LPS induced maximal secretion of IL-1β, IL-6, and TNF-α, all of which are released in small amounts under basal conditions, as shown in Figure 22.

[3] = system: IL-1β; assay: LPS-stimulated cytokine secretion in HCEC (ELISA); conditions: 500 ng/mL LPS 24-hour; preincubation 1h; 100 µg/ml each, combination in 1/1 ratio
Description: as §1, §2

[4] = system: TNF-α; assay: LPS-stimulated cytokine secretion in HCEC (ELISA); conditions: 500 ng/mL LPS 24-hour; preincubation 1h; 100 µg/ml each, combination in 1/1 ratio
Description: as §1, §2

[5] = system: NF-kβ p65; assay: NF-kβ p65 DNA binding activity test (TransAM ELISA) in LPS-stimulated HCEC; conditions: 500 ng/ml LPS, 12 hours; PGB 100 µg/ml, HA 100 µg/ml or combination
Description: To evaluate the ability of the synergistic composition of the invention to inhibit NF-kβ activity in corneal cells, the NF-kβ p65 DNA Binging activity test was used with the ELISA kit of the TransAM p65 transcription factor (Active Motif, Carlsbad, CA).
HCEC cells were stimulated with 500 ng/ml LPS in the presence and absence of PGB 100 µg/ml, HA 100 µg/ml or a combination of PGB+HA for 12 hours, as described here.
Subsequently, the DNA binding activity of NF-kβ p65 was determined. 12 hours after stimulation with LPS markedly promoted the DNA-binding activity of NF-kβ p65 and the expression of the pro-inflammatory cytokines IL-1β, IL-6 and TNF-α.

## CC(C)C[C@H](CN)CC(=O)O [PGB, (S)-3-(aminomethyl)-5-methylhexanoic acid]
[1]; 24 hours, 1000 µg/ml
  cell viability (MTT): a certain reduction in cell viability
[1]; 24 hours, 10, 50, 100, 200 µg/ml
  cell viability (MTT), toxicity: no evidence of toxicity; also recorded: did not show toxicity
[2]
  LPS-stimulated secretion of IL-6: significantly reduced
[3]
  LPS-stimulated secretion of IL-1β: significantly reduced
[4]
  LPS-stimulated secretion of TNF-α: significantly reduced
[5]
  DNA-binding activity of NF-kβ p65: lower DNA-binding activity
